Legend:
Type in all cases: in vivo, mouse
COX IV = COX IV expression in DRG of STZ-diabetic mice (Western blot); details: daily injections for 8 weeks
Procedure: Quantitative Western blotting was performed as described in Example 15. Quantitative Western blotting was performed as previously disclosed by Chowdhury et al (2010) and Fernyhough et al. (1999). DRG homogenates of 5-10 μg of protein were resolved on a 10% SDS-PAGE gel and electroblotted onto nitrocellulose membrane. Blots were then blocked in 5% nonfat milk containing 0.05% Tween-20, rinsed in PBS (pH 7.4) and incubated with the following antibodies: monoclonal anti-cytochrome c oxidase subunit 4 (COX IV; 1:1000, Mitosciences, Eugene, OR, US), monoclonal anti-NADH dehydrogenase (ubiquinone) iron-sulfur protein 3 (NDUFS3, 1:1000, Mitosciences, Eugene, OR, US). Extracellular signal-regulated kinase (T-ERK; 1:2000, Covance, Princeton, NJ, US) was probed as a loading control. The blots were rinsed, incubated in Western blotting Luminol Reagent (Santa Cruz Biotechnology Inc., Santa Cruz, CA, US) and imaged using a BioRad Fluor-S image analyzer (BioRad, Hercules, CA, US).

[1] = tested on: STZ-induced diabetic C57Bl6J mice; test: Reappearance of neuropathy after withdrawal of treatment
From the text: Only 9 weeks later (the 17-wk time point) was there a significant reappearance of hypoalgesia in the previously treated STZ-induced diabetic mice (FIG. 12).

[2] = tested on: mitochondrial respiratory complex IV; test: Mitochondrial respiratory complex IV activity in DRG of STZ-diabetic mice; details: daily injections for 8 weeks, lumbar DRG
Procedure: All measurements of enzymatic activities in lumbar DRG preparations were performed spectrophotometrically using a temperature controlled Ultrospec 2100 UV-visible spectrophotometer (Biopharmacia Biotech, Uppsala, Sweden) using the methods taught by Chowdhury et al. (2010). Complex I activity was measured as rotenone-sensitive NADH: cytochrome c reductase activity. Freshly prepared assay buffer (50 mmol/l K-phosphate pH 7.4, 1 mmol/l KCN, 100 μmol/l NADH) and 10 μg protein of DRG homogenate preparation were added to the cuvette and preincubated for 3 min at 25° C. After addition of 100 μmol/l oxidized cytochrome c, the reaction was followed for 2 minutes at 550 nm and then for 2 more minutes after addition of 25 μmol/l rotenone to allow calculation of the rotenone-sensitive Complex I activity. Complex IV activity was measured at 25° C. by monitoring the absorbance decrease of reduced cytochrome c at 550 nm as disclosed by Chowdhury et al. (2000, Clin. Chim. Acta 298: 157-173). […] Activity of the Krebs cycle enzyme, citrate synthase, was determined at 25° C. in medium containing 150 mmol/l Tris-HCl (pH 8.2), 0.02% laurylmaltoside, 0.1 mmol/l dithionitrobenzoic acid and 5 μg protein according to the method of Chowdhury et al (2007, Free Radic. Res. 41: 1116-1124). The reaction was initiated by addition of 100 μmol/l acetyl CoA and changes in absorbance at 412 nm were measured for 1 minute. […]

[3] = tested on: STZ diabetic C57Bl6J mice; test: Prophylactic subcutaneous injections in STZ diabetic mice
Procedure: Male C57Bl6J mice were made diabetic with 2 injections of 90 mg/kg STZ on consecutive days, and then separated into four groups.
Two months after the second STZ injection, the function of the small sensory neurons in all five groups of mice were determined by measuring hind paw thermal response latency using a modified Hargreaves apparatus (UARD, San Diego, CA, US) with a heating rate of approximately 1° C./sec from a baseline of 30° C. and with a cut-off at 20 seconds as taught by Calcutt et al. (2004, Diabetologia 47: 718-724). […] Statistical analysis was done using the one-way ANOVA with post-hoc comparison using Tukey's test.
The structural integrity of small sensory neurons was assessed by measuring intraepidermal nerve fiber (IENF) profiles in hind paw plantar skin that was immersion fixed in 4% paraformaldehyde and processed to paraffin blocks. Sections (6 μm) were stained with the pan-neuronal marker PGP9.5 (1:1000, Biogenesis Ltd., Poole, UK) and viewed under a light microscope to allow counting of IENF and sub-epidermal nerve profiles (SNP) per unit length of the dermal: epidermal border using the technique taught by Beiswenger et al. (2008, Neurosci Lett. 442, 267-272). […] Statistical analyses were done using one-way ANOVA followed by Tukey's test.
Motor nerve conduction velocity was measured under isoflurane anesthesia and core and nerve temperature were maintained at 37° C. using a heating pad and lamps following the teachings of Jolivalt et al, (2011, Diabetes Obesity and Metabolism, June 2 Epub ahead of print). The sciatic nerve was stimulated (5V, 0.05 ms pulse, square wave) with needle electrodes at the sciatic notch or ankle. […] The difference in response latencies of the M wave after stimulation at the sciatic notch and ankle was recorded as the time required for the motor nerve conduction between the stimulation sites. The distance between stimulation sites was measured on the surface of the fully extended hind limb and divided by the difference in M wave latencies to calculate sciatic motor nerve conduction velocity (MNCV). […]

[4] = 10 mg/kg daily s.c., two months after STZ, vs control mice

SMILES: CN1CCN(CC(=O)N2c3ccccc3C(=O)Nc3cccnc32)CC1 [pirenzepine, 11-[2-(4-methylpiperazin-1-yl)acetyl]-5H-pyrido[2,3-b][1,4]benzodiazepin-6-1]
- expression of COX IV mitochondrial protein (COX IV): restored the expression
- thermal hypoalgesia ([1]; 10 mg/kg daily s.c., after 8 weeks): hypoalgesia was prevented
- time after stopping treatment to significant reappearance of hypoalgesia ([1]; treatment stopped at 8 weeks, 17-wk time point): 9 weeks
- activity of mitochondrial respiratory complex IV [2]: restored the deficits
- hind paw thermal response latency [3, 4]: not significantly different from the control non-diabetic mice
- paw levels of IENF [3, 4]: no significant changes
- motor nerve conduction velocity ([3]; diabetic mice): prevented deficits in motor nerve conduction velocity
